Experimental data taken from patent US6710049B2, “Azole compounds as anti-fungal agents” (Ranbaxy Laboratories Limited, priority 2000, dated 2004).

Experiments:
Test in all cases: MIC determination (NCCLS broth method)
Rhizopus (Ceylon) = assay type: cell-based
Procedure, shortened: (§1)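 Broth microdilution per NCCLS M27A (yeasts) and M38P (Aspergillus), modified for dermatophytes and other filamentous fungi; RPMI 1640 buffered with MOPS to pH 7. MIC is the lowest concentration giving significant growth inhibition. Wells showing no growth are subcultured onto Sabouraud Dextrose Agar to give the MFC.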

Penicillium H - 1048 = assay type: cell-based
Procedure, shortened: as §1

C krusei 6258 = assay type: cell-based
Procedure, shortened: as §1

Fusarium 1827C = assay type: cell-based
Procedure, shortened: as §1

Fusarium 2960C = assay type: cell-based
Procedure, shortened: as §1

C tropicalis 750 = assay type: cell-based
Procedure, shortened: as §1

A niger P1 - 1046 = assay type: cell-based
Procedure, shortened: as §1

C krusei 766.1 = assay type: cell-based
Procedure, shortened: as §1

Penicillium 3162 = assay type: cell-based
Procedure, shortened: as §1

Penicillium I - 1049 = assay type: cell-based
Procedure, shortened: as §1

Penicillium 2548 = assay type: cell-based
Procedure, shortened: as §1

A flavus P2 - 1045 = assay type: cell-based
Procedure, shortened: as §1

Rhizopus 1052 = assay type: cell-based
Procedure, shortened: as §1

Fusarium 1050 = assay type: cell-based
Procedure, shortened: as §1

A flavus E2 - 1043 = assay type: cell-based
Procedure, shortened: as §1

C parapsilosis 22019 = assay type: cell-based
Procedure, shortened: as §1

Penicillium 1641 = assay type: cell-based
Procedure, shortened: as §1

A niger E5 - 1047 = assay type: cell-based
Procedure, shortened: as §1

Penicillium 191 = assay type: cell-based
Procedure, shortened: as §1

A flavus E4 - 1042 = assay type: cell-based
Procedure, shortened: as §1

Alternaria 1051 = assay type: cell-based
Procedure, shortened: as §1

C albicans Y01.19 = assay type: cell-based, Candida albicans
Source text: (§2) The in-vitro evaluation of the antifungal activity of the compounds can be performed by determining the minimum inhibitory concentration (MIC) as shown in Table 1 which is the concentration of the test compound in Rosewell Park Memorial Institute (RPMI) 1640 liquid medium buffered with 3-(Morpholino)propanesulphonic acid (MOPS) to pH 7, at which there is significant inhibition of the particular fungi. In practice the National Committee for Clinical Laboratory Standard (NCCLS) M27A document for Candida and Cryptococcus and M38P for Aspergillus was used to determine the MIC against yeast and filamentous fungi with suitable modifications for dermatophytes to other filamentous fungi. Three quality control strains were included each time the MIC were determined and readings recorded only when the Quality Control results fell into the acceptable range. After MIC results had been recorded, 100 μl from each of the well showing no growth was spread over Sabouraud Dextrose Agar (SDA) to determine the minimum fungicidal concentration (MFC) as shown in Table 2.

C albicans A-26 = assay type: cell-based, Candida albicans
Source text: as §2

Penicilliuim 2306 = assay type: cell-based, Penicillium
Source text: as §2

A fumigatus II - 1012 = assay type: cell-based, Aspergillus fumigatus
Source text: as §2

A fumigatus 1008 = assay type: cell-based, Aspergillus fumigatus
Source text: as §2

A fumigatus SI-1 - 1019 = assay type: cell-based, Aspergillus fumigatus
Source text: as §2

A fumigatus PGI - 1023 = assay type: cell-based, Aspergillus fumigatus
Source text: as §2

A fumigatus L - 1034 = assay type: cell-based, Aspergillus fumigatus
Source text: as §2

A fumigatus J - 1032 = assay type: cell-based, Aspergillus fumigatus
Source text: as §2

A fumigatus K - 1033 = assay type: cell-based, Aspergillus fumigatus
Source text: as §2

A fumigatus I - 1011 = assay type: cell-based, Aspergillus fumigatus
Source text: as §2

C[C@@H]1[C@H](O)[C@@H](C)/C=C/C=C/C=C/C=C/C=C/C=C/C=C/[C@H](O[C@@H]2O[C@H](C)[C@@H](O)[C@H](N)[C@@H]2O)C[C@@H]2O[C@](O)(C[C@@H](O)C[C@@H](O)[C@H](O)CC[C@@H](O)C[C@@H](O)CC(=O)O[C@H]1C)C[C@H](O)[C@H]2C(=O)O [Amphotericin-B, Amphotericin B]
Minimum Inhibitory Concentration (MIC) (Rhizopus (Ceylon)): 64 µg/mL | Minimum Inhibitory Concentration (MIC) (Penicillium H - 1048): 0.25 µg/mL | Minimum Inhibitory Concentration (MIC) (C krusei 6258): 0.25 µg/mL | Minimum Inhibitory Concentration (MIC) (Fusarium 1827C): >128 µg/mL | Minimum Inhibitory Concentration (MIC) (Fusarium 2960C): 0.5 µg/mL | Minimum Inhibitory Concentration (MIC) (C tropicalis 750): 0.25 µg/mL | Minimum Inhibitory Concentration (MIC) (A niger P1 - 1046): 0.25 µg/mL | Minimum Inhibitory Concentration (MIC) (C krusei 766.1): 0.25 µg/mL | Minimum Inhibitory Concentration (MIC) (Penicillium 3162): 0.25 µg/mL | Minimum Inhibitory Concentration (MIC) (Penicillium I - 1049): 0.25 µg/mL | Minimum Inhibitory Concentration (MIC) (Penicillium 2548): 0.03 µg/mL | Minimum Inhibitory Concentration (MIC) (A flavus P2 - 1045): 1 µg/mL | Minimum Inhibitory Concentration (MIC) (Rhizopus 1052): 0.06 µg/mL | Minimum Inhibitory Concentration (MIC) (Fusarium 1050): 0.5 µg/mL | Minimum Inhibitory Concentration (MIC) (A flavus E2 - 1043): 1 µg/mL | Minimum Inhibitory Concentration (MIC) (C parapsilosis 22019): 0.25 µg/mL | Minimum Inhibitory Concentration (MIC) (Penicillium 1641): 0.06 µg/mL | Minimum Inhibitory Concentration (MIC) (A niger E5 - 1047): 0.25 µg/mL | Minimum Inhibitory Concentration (MIC) (Penicillium 191): 0.25 µg/mL | Minimum Inhibitory Concentration (MIC) (A flavus E4 - 1042): 0.125 µg/mL | Minimum Inhibitory Concentration (MIC) (Alternaria 1051): 1 µg/mL | Minimum Inhibitory Concentration (MIC) (C albicans Y01.19): 0.125 µg/mL | Minimum Inhibitory Concentration (MIC) (C albicans A-26): 0.25 µg/mL | Minimum Inhibitory Concentration (MIC) (Penicilliuim 2306): 0.25 µg/mL | Minimum Inhibitory Concentration (MIC) (A fumigatus II - 1012): 0.125 µg/mL | Minimum Inhibitory Concentration (MIC) (A fumigatus 1008): 0.25 µg/mL | Minimum Inhibitory Concentration (MIC) (A fumigatus SI-1 - 1019): 0.5 µg/mL | Minimum Inhibitory Concentration (MIC) (A fumigatus PGI - 1023): 0.125 µg/mL | Minimum Inhibitory Concentration (MIC) (A fumigatus L - 1034): 0.25 µg/mL | Minimum Inhibitory Concentration (MIC) (A fumigatus J - 1032): 0.25 µg/mL | Minimum Inhibitory Concentration (MIC) (A fumigatus K - 1033): 0.125 µg/mL | Minimum Inhibitory Concentration (MIC) (A fumigatus I - 1011): 0.25 µg/mL
